Patent publication US20070265231A1, “Hydrazide Compounds for Combating Animal Pests” (priority 2005, published 2007)

Columns and labels:
Bean Aphid (Aphis fabae) = test: Bean aphid mortality test, nasturtium plants dipped in test solution; assay type: in vivo; details: 300 ppm, after 3 days
Description: I.4 Bean Aphid (Aphis fabae)
Nasturtium plants grown in Metro mix in the 1st leaf-pair stage (variety ‘Mixed Jewel’) were infested with approximately 2-30 laboratory-reared aphids by placing infested cut plants on top of the test plants. The cut plants were removed after 24 hr. Each plant was dipped into the test solution to provide complete coverage of the foliage, stem, protruding seed surface and surrounding cube surface and allowed to dry in the fume hood. The treated plants were kept at about 25° C. with continuous fluorescent light. Aphid mortality is determined after 3 days.

[1] = test system: Orchid thrips (dichromothrips corbetti); test: Orchid thrips mortality test, floral-immersion technique; assay type: in vivo; details: 96 h, orchid petals dipped, adult thrips, after 4 days, read-out: mortality in comparison with untreated controls
Description: I.3 Orchid thrips (dichromothrips corbetti)
Dichromothrips corbetti adults used for bioassay were obtained from a colony maintained continuously under laboratory conditions. For testing purposes, the test compound was diluted to a concentration of 500 ppm (wt compound: vol diluent) in a 1:1 mixture of acetone:water, plus 0.01% Kinetic® surfactant.
Thrips potency of each compound was evaluated by using a floral-immersion technique. Plastic petri dishes were used as test arenas. All petals of individual, intact orchid flowers were dipped into treatment solution for approximately 3 seconds and allowed to dry for 2 hours. Treated flowers were placed into individual petri dishes along with 10-15 adult thrips. The petri dishes were then covered with lids. All test arenas were held under continuous light and a temperature of about 28° C. for duration of the assay. After 4 days, the numbers of live thrips were counted on each flower, and along inner walls of each petri dish. The level of thrips mortality was extrapolated from pre-treatment thrips numbers.

SMILES | mortality in comparison with untreated controls (Bean Aphid (Aphis fabae)) [%] | mortality at 300 ppm [1] [%]
CC(=Cc1cccc(F)c1)CNN(C)C(=O)c1ccccc1 [A93] | 75 | 
CC(C)C(=Cc1ccco1)CNNC(=O)c1ccccn1 [E3] | 75 | 
CC(=Cc1cccc(F)c1)CNNC(=O)c1ccccc1F [A1, 2-Fluorobenzoic acid N′-[3-(3-fluorophenyl)-2-methyl-allyl]hydrazide] |  | > 75
CC(=Cc1ccccc1F)CNNC(=O)c1ccc(F)cc1F [A305] | 75 | 
CC(=Cc1ccccc1)CNNC(=O)c1ccc(F)cc1F [A141] | 75 | 
O=C(NNCC=Cc1ccc(Cl)s1)c1ccccn1 [E1] | 75 | 
